Results published in patent US20240150339A1, “Compounds and Their Use as PDE4 Activators” (Mironid Limited, priority 2021, published 2024).

How the values were obtained:
PDE4C3 = biological target: T1, PDE4C3 (Homo sapiens, UniProt Q08493); experiment: PDE assay, activation of full-length human PDE4C3 long form ([3H]cAMP radio-assay); format: biochemical; conditions: 30 μM test compound; mean % increase in counts over basal activity
T1 construct: Using Full-Length Human PDE4 Isoforms: Long Forms PDE4D5, PDE4C3, PDE4B1 and Short Form PDE4B2; made in house; host or cells: HEK 293 transfected with pcDNA3.1 or pDEST PDE4 expression vector; cytosol fraction of the lysate by analogy to PDE4D5
From the text: (§1) Experiment 1: Measurement of Modulation of Enzyme Activity by PDE4 Long Form Activators of the Present Invention Using Full-Length Human PDE4 Isoforms: Long Forms PDE4D5, PDE4C3, PDE4B1 and Short Form PDE4B2
(§2) (Marchmont, R. J. and Houslay, M. D. Biochem. J. 187: 381-92, 1980)
For transient transfection of exogenous PDE4 long isoforms, HEK 293 cells were transfected with pcDNA3.1 or pDEST™ PDE4 expression vectors using Lipofectamine LTX/Plus reagent (Invitrogen) as outlined by the manufacturer. […]
(§3) HEK-PDE4D5 cells were seeded out in 100 mm plates and incubated at 37° C. in an atmosphere of 5% CO2, 95% air. Cell lysates were prepared using KHEM buffer [50 mM KCl, 10 mM EGTA, 50 mM HEPES (pH 7.2), 1.92 mM MgCl2].
(§4) To prepare the cell lysates, the 100 mm plates containing the cells were placed on ice and washed with ice-cold PBS (phosphate buffered saline, pH 7.4). KHEM buffer (500 μl) was added to the cells. Cells were then scraped off the plate and triturated using a needle (BD Microlance™ 0.8, 40 mm). The lysed cells were then centrifuged at 2000 rpm for 10 minutes to remove cell debris and the supernatant (cell lysate containing recombinant PDE4D5) was transferred to a fresh tube and kept on ice.
(§5) The cell lysate containing recombinant PDE4D5 was transferred into a centrifuge tube and placed into an ultracentrifuge (BECKMAN COULTER) and spun at high speed (100,000 g) for 30 minutes at 4° C. The cytosol fraction was then collected and its protein amount determined using a BCA protein assay.
(§6) PDE assays were performed in thin walled V-bottomed 96-well plates. The assays were performed at a final concentration of 10 mM Tris/5 mM MgCl2 μlus PDE4D5 cell lysate cytosol fraction, containing over-expressed PDE4D5, with and without test compound. The lysate/compound mix were incubated together for 15 min at room temperature on an orbital shaker prior to addition of [^3H] cAMP (final concentration 1 μM [^3H] cAMP; Perkin Elmer) to a final volume of 50 μl per reaction. The reactions were then incubated for 10 minutes at 30° C., terminated by heating for 2 min at 95° C. and allowed to cool. Snake venom (12.5 μl of 1 mg/ml; Crotalus atrox, Sigma) was then added and the plates were agitated and incubated for a further 15 minutes at 30° C. Dowex ion exchange resin (Sigma, chloride form, 200-400 mesh; 200 μl; prepared as a 1:1 Dowex: water stock, thoroughly re-suspended and diluted 2:1 with ethanol) was then added to each well and the plates incubated for 15 min at room temperature on an orbital shaker ensuring sufficient agitation for resin suspension (550 RPM). The reaction mixture was then transferred to a 96 well filter plate (Millipore; […] pore size) and filtered into a receiving 96-well plate to remove the dowex suspension. 30 μL of the filtered solution was then transferred to the wells of an Opti-plate (Perkin Elmer) 96 well assay plate and 120 μl of Microscint 40 scintillation fluid was added. The plate was then placed on an orbital shaker for 10 min at high speed (900 RPM) to mix the sample with scintillation fluid prior to quantitation using a plate based scintillation counter (Top-Count).
(§7) The % increase in counts in the presence of test compound at a particular concentration indicates the % increase in enzyme activity at that concentration.

m-IMCD3 cells = experiment: Inhibition of PGE2-stimulated in vitro cyst formation in 3D culture of m-IMCD3 cells; format: cell-based, mouse; conditions: Mus musculus, mIMCD3, 144 h; 10 μM test compound; mean cyst area (%) compared to 100% for (DMSO + PGE2) and 0% for DMSO control; 100 nM PGE2; 6 days; read-out: % Cyst area after incubation with 10 μM test compound
Summary of the method: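 Mouse m-IMCD3 cells grown in 3D collagen I/Matrigel gels. From 18-24 h after plating, compound (0.1% DMSO) plus 100 nM PGE2 were added and replenished at 2-3 days. After 6 days, imaging gave mean cyst area, scaled to 100% for DMSO+PGE2 and 0% for DMSO alone.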

PDE4D5 = biological target: T2, PDE4D5 (Homo sapiens, UniProt Q08499); experiment: PDE assay, activation of full-length human PDE4D5 long form ([3H]cAMP radio-assay); format: biochemical; conditions: 30 μM test compound; mean % increase in counts over basal activity
T2 construct: Using Full-Length Human PDE4 Isoforms: Long Forms PDE4D5, PDE4C3, PDE4B1 and Short Form PDE4B2; made in house; cytosol fraction of the cell lysate, not purified
From the text: as §1, §2
For transient transfection of exogenous PDE4 long isoforms, HEK 293 cells were transfected with pcDNA3.1 or pDEST™ PDE4 expression vectors using Lipofectamine LTX/Plus reagent (Invitrogen) as outlined by the manufacturer.
Where stable cell lines were generated the clonal isolates were expanded to obtain cell lines that stably expressed the full-length human PDE4 long isoforms and the full length human PDE4B2 short isoform. These were called the HEK-PDE4D5, HEK-PDE4B1 and HEK-PDE4B2 cell lines, respectively.
as §3, §4, §5, §6, §7

T1 sequence (Q08493 1-680 isoform Q08493-3): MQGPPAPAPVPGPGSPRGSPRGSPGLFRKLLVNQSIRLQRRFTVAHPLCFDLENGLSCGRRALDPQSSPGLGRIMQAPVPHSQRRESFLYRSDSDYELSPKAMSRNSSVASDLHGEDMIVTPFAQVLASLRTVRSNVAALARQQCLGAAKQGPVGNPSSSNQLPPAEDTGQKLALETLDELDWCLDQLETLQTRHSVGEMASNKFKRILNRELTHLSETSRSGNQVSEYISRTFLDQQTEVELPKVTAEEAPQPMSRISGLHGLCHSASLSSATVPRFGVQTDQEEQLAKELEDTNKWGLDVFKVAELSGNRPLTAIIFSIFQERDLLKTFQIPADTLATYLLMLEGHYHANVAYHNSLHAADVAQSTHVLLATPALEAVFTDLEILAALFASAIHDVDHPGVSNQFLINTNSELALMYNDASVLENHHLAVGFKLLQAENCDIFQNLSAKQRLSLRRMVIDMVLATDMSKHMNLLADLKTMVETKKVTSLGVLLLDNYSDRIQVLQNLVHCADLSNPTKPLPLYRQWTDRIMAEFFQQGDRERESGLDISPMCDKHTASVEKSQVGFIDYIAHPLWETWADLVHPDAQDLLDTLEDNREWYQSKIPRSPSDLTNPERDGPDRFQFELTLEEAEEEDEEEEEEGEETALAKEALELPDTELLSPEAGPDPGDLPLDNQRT
T2 sequence (Q08499 1-745 isoform Q08499-6): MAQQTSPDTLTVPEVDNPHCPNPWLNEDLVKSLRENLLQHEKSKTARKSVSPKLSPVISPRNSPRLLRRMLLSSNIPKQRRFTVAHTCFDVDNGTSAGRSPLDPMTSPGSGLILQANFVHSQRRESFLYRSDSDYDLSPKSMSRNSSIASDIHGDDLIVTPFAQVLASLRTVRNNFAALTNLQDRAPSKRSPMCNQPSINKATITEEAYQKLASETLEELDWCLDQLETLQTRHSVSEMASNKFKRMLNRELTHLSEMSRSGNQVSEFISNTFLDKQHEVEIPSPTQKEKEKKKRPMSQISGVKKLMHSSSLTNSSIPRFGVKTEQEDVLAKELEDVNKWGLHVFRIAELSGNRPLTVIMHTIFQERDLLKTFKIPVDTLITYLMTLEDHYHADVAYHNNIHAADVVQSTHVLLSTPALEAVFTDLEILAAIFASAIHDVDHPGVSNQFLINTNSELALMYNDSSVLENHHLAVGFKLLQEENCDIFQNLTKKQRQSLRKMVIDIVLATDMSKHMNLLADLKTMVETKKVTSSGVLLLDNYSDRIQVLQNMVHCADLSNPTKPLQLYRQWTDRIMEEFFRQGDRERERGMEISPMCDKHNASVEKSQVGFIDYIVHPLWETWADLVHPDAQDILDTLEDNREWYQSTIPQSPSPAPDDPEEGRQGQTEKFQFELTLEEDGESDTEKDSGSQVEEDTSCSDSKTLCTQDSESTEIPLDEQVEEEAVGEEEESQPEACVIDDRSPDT

Structure (SMILES)	activation at 30 µM (PDE4C3)	activity at 10 µM (m-IMCD3 cells)	activation at 30 µM (PDE4D5)
Cc1cncc(-c2nc3ccc(C(=O)NCc4ccc(Cl)cc4)cc3s2)c1 [Example 31, N-(4-chlorobenzyl)-2-(5-methylpyridin-3-yl)benzo[d]thiazole-6-carboxamide]	76%	–	–
Cc1cncc(-c2nc3ccc(C(=O)N[C@@H]4CCc5ccccc54)cc3s2)c1 [Example 38, (R)-N-(2,3-dihydro-1H-inden-1-yl)-2-(5-methylpyridin-3-yl)benzo[d]thiazole-6-carboxamide]	32%	–	–
Cc1nn(C)c(C)c1-c1nc2ccc(C(=O)N[C@H]3CCOc4ccccc43)cc2s1 [Example 59, (S)-N-(chroman-4-yl)-2-(1,3,5-trimethyl-1H-pyrazol-4-yl)benzo[d]thiazoIe-6-carboxamide]	–	20%	77%
Cc1cnccc1-c1nc2ccc(C(=O)N[C@H]3CCOc4ccccc43)cc2s1 [Example 55, (S)-N-(chroman-4-yl)-2-(3-methylpyridin-4-yl)benzo[d]thiazole-6-carboxamide]	–	18%	49%
Cc1cncc(-c2nc3ccc(C(=O)N[C@H]4CCc5ccccc54)cc3s2)c1 [Example 37, (S)-N-(2,3-dihydro-1H-inden-1-yl)-2-(5-methylpyridin-3-yl)benzo[d]thiazole-6-carboxamide]	57%	–	–
Cc1cc(-c2nc3ccc(C(=O)N[C@H]4CCOc5ccccc54)cc3s2)ccn1 [Example 56, (S)-N-(chroman-4-yl)-2-(2-methylpyridin-4-yl)benzo[d]thiazole-6-carboxamide]	–	10%	107%
Cc1cncc(-c2nc3ccc(C(=O)NCc4cccc(F)c4)cc3s2)c1 [Example 35, N-(3-fluorobenzyl)-2-(5-methylpyridin-3-yl)benzo[d]thiazole-6-carboxamide]	36%	–	–
O=C(N[C@H]1CCOc2ccccc21)c1ccc2nc(-c3cncc(C(F)F)c3)sc2c1 [Example 63, (S)-N-(chroman-4-yl)-2-(5-(difluoromethyl)pyridin-3-yl)benzo[d]thiazole-6-carboxamide]	–	16%	110%
O=C(N[C@H]1CCOc2ccccc21)c1ccc2nc(-c3cncc(C(F)(F)F)c3)sc2c1 [Example 47, (S)-N-(chroman-4-yl)-2-(5-(trifluoromethyl)pyridin-3-yl)benzo[d]thiazole-6-carboxamide]	–	12%	102%
O=C(N[C@H]1CCOc2ccccc21)c1ccc2nc(-c3ccc(C(F)(F)F)nc3)sc2c1 [Example 25, (S)-N-(chroman-4-yl)-2-(6-(trifluoromethyl)pyridin-3-yl)benzo[d]thiazole-6-carboxamide]	–	23%	37%
Cc1nn(C)cc1-c1nc2ccc(C(=O)N[C@H]3CCOc4ccccc43)cc2s1 [Example 61, (S)-N-(chroman-4-yl)-2-(1,3-dimethyl-1H-pyrazol-4-yl)benzo[d]thiazole-6-carboxamide]	–	8%	124%
Cc1cncc(-c2nc3ccc(C(=O)N[C@@H]4c5ccccc5C[C@@H]4O)cc3s2)c1 [Example 39, N-((1R,2S)-2-hydroxy-2,3-dihydro-1H-inden-1-yl)-2-(5-methylpyridin-3-yl)benzo[d]thiazole-6-carboxamide]	35%	–	–
Cc1ccc(-c2nc3ccc(C(=O)N[C@H]4c5ccccc5C[C@H]4O)cc3s2)cn1 [Example 19, N-((1S,2R)-2-hydroxy-2,3-dihydro-1H-inden-1-yl)-2-(6-methylpyridin-3-yl)benzo[d]thiazole-6-carboxamide]	–	–	73%
CCN1CCN(c2nc3ccc(C(=O)N[C@H]4CCOc5ccccc54)cc3s2)CC1 [Example 72, (S)-N-(chroman-4-yl)-2-(4-ethylpiperazin-1-yl)benzo[d]thiazole-6-carboxamide]	–	–	32%
Cc1ccc(-c2nc3ccc(C(=O)NCc4ccccc4)cc3s2)cn1 [Example 10, N-benzyl-2-(6-methylpyridin-3-yl)benzo[d]thiazole-6-carboxamide]	–	–	78%
Cc1ccc(-c2nc3ccc(C(=O)N[C@H]4CCc5ccccc54)cc3s2)cn1 [Example 17, (S)-N-(2,3-dihydro-1H-inden-1-yl)-2-(6-methylpyridin-3-yl)benzo[d]thiazole-6-carboxamide]	–	–	171%
Cn1cc(-c2nc3ccc(C(=O)N[C@H]4CCOc5ccccc54)cc3s2)cn1 [Example 57, (S)-N-(chroman-4-yl)-2-(1-methyl-1H-pyrazol-4-yl)benzo[d]thiazole-6-carboxamide]	–	–	100%
CC(C)c1cncc(-c2nc3ccc(C(=O)N[C@H]4CCOc5ccccc54)cc3s2)c1 [Example 49, (S)-N-(chroman-4-yl)-2-(5-isopropylpyridin-3-yl)benzo[d]thiazole-6-carboxamide]	–	9%	131%
O=C(N[C@H]1CCOc2ccccc21)c1ccc2nc(-c3cncc(C4CC4)c3)sc2c1 [Example 48, (S)-N-(chroman-4-yl)-2-(5-cyclopropylpyridin-3-yl)benzo[d]thiazole-6-carboxamide]	–	14%	135%
Cc1ncccc1-c1nc2ccc(C(=O)NCc3ccc(Cl)cc3)cc2s1 [Example 1, N-(4-chlorobenzyl)-2-(2-methylpyridin-3-yl)benzo[d]thiazole-6-carboxamide]	–	-7%	48%
Cc1cnn(C)c1-c1nc2ccc(C(=O)N[C@H]3CCOc4ccccc43)cc2s1 [Example 58, (S)-N-(chroman-4-yl)-2-(1,4-dimethyl-1H-pyrazol-5-yl)benzo[d]thiazole-6-carboxamide]	–	–	101%
Cc1c(-c2nc3ccc(C(=O)N[C@H]4CCOc5ccccc54)cc3s2)cnn1C [Example 60, (S)-N-(chroman-4-yl)-2-(1,5-dimethyl-1H-pyrazol-4-yl)benzo[d]thiazole-6-carboxamide]	–	–	122%
Cc1ccc(-c2nc3ccc(C(=O)N[C@H]4CCOc5ccccc54)cc3s2)cn1 [Example 24, (S)-N-(chroman-4-yl)-2-(6-methylpyridin-3-yl)benzo[d]thiazole-6-carboxamide]	–	–	97%
O=C(N[C@H]1CCOc2ccccc21)c1ccc2sc(-c3cccnc3)nc2c1 [Example 67, (S)-N-(chroman-4-yl)-2-(pyridin-3-yl)benzo[d]thiazole-5-carboxamide]	–	–	89%
Cc1ccc(-c2nc3ccc(C(=O)N[C@H]4CCCc5ccccc54)cc3s2)cn1 [Example 23, (S)-2-(6-methylpyridin-3-yl)-N-(1,2,3,4-tetrahydronaphthalen-1-yl)benzo[d]thiazole-6-carboxamide]	–	–	94%
